These results are taken from patent EP3722296B1, “DIHYDRONAPHTHYRIDINES AND RELATED COMPOUNDS USEFUL AS KINASE INHIBITORS FOR THE TREATMENT OF PROLIFERATIVE DISEASES” (Deciphera Pharmaceuticals, LLC, priority 2012, dated 2013).

Holding throughout (format): biochemical
One test addresses T1, c-KIT D816V kinase (Homo sapiens, UniProt P10721, D816V).
T1 construct: residues T544-V976 with N-terminal GST fusion; purchased deCODE Biostructures
As to the kind of experiment: c-KIT D816V kinase Assay. The following applies: enzymatic assay, ATP 200 uM. How it is done:
In this assay, the oxidation of NADH (measured by decrease in absorbance at 340 nm) was continuously monitored spectrophotometrically. […] The inhibition reaction was started by mixing serial diluted test compound with the above reaction mixture. The absorption at 340 nm was monitored continuously for 5 hours at 30 °C on Synergy 2 plate reader (BioTech).
(§1) The protein construct was prepared by deCODE Biostructures using procedures known in the art. The construct contains residues T544-V976 of cKit, an N-terminal tag, a GST-fusion sequence and a TEV cleavage site. This construct is identical to Seq ID no.

The target of a further test is T2, c-KIT T670I kinase (Homo sapiens, UniProt P10721, T670I).
T2 construct: The construct contains residues T544-V976 of cKit; GST (N); TEV cleavage site (internal); purchased deCODE Biostructures
T2 sequence (P10721 544-976 T670I): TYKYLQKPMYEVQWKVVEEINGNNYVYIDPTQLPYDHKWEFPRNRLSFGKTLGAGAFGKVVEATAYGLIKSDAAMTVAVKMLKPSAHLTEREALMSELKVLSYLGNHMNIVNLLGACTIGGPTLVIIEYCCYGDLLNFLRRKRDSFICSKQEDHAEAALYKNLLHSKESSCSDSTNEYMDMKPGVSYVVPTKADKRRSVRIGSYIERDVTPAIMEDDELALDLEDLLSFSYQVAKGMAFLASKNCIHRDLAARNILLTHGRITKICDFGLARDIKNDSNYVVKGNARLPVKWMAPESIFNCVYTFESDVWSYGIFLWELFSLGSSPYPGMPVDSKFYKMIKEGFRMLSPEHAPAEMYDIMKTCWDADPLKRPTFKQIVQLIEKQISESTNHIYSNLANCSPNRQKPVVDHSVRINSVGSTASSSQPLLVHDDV
The test is described as follows: c-KIT T670I kinase assay. The conditions noted are these: enzymatic assay. How it is done:
In this assay, the oxidation of NADH (measured by decrease in absorbance at 340 nm) was continuously monitored spectrophotometrically. […] The inhibition reaction was started by mixing serial diluted test compound with the above reaction mixture. The absorption at 340 nm was monitored continuously for 5 hours at 30 °C on Synergy 2 plate reader (BioTech). […] The protein construct was prepared by deCODE Biostructures using procedures known in the art. The construct contains […] of cKit, an N-terminal tag, a GST-fusion sequence and a TEV cleavage site. This construct is identical to Seq ID no. 1 except for the T670I mutation. [formula] [formula]

For a further test, the target named is c-KIT kinase (Homo sapiens, UniProt P10721). As to the kind of experiment: c-KIT kinase Assay. Also on record: cKIT residues T544-V976; GST (N); TEV cleavage site (internal); purchased deCODE Biostructures. The following applies: enzymatic assay, ATP 200 µM; read-out: KIT (wt) IC50. How it is done: In this assay, the oxidation of NADH (measured by decrease in absorbance at 340 nm) was continuously monitored spectrophotometrically. […] The absorption at 340 nm was monitored continuously for 2 hours at 30 °C on Synergy 2 (BioTeK). The reaction rate was calculated using the 0 to 1 h time frame. Percent inhibition was obtained by comparison of reaction rate with that of a control (i.e. with no test compound). IC50 values were calculated from a series of percent inhibition values determined at a range of inhibitor concentrations using software routines as implemented in the GraphPad Prism software package. The protein construct was prepared by deCODE Biostructures using procedures known in the art. The construct contains […] of cKit, an N-terminal tag, a GST-fusion sequence and a TEV cleavage site. [formula]
Chain of c-KIT kinase (P10721 544-976): as the sequence (P10721 544-976 T670I) above, with I127T counted along it

The target in a further test is T3, c-KIT V654A kinase (Homo sapiens, UniProt P10721, V654A).
T3 construct: residues T544-V976 with N-terminal GST fusion; purchased deCODE Biostructures
T3 sequence (P10721 544-976 V654A): as the sequence (P10721 544-976 T670I) above, with V111A, I127T counted along it
The test is described as follows: c-KIT V654A Kinase Assay. The following applies: enzymatic assay, ATP 200 µM. Here is the method:
In this assay, the oxidation of NADH (measured by decrease in absorbance at 340 nm) was continuously monitored spectrophotometrically. […] The inhibition reaction was started by mixing serial diluted test compound with the above reaction mixture. The absorption at 340 nm was monitored continuously for 6 hours at 30 °C on Synergy 2 plate reader (BioTech).
as §1

The next test addresses T4, c-KIT D816H kinase (Homo sapiens, UniProt P10721, D816H).
T4 construct: The construct contains residues T544-V976 of cKit; GST (N); TEV cleavage site (internal); purchased deCODE Biostructures
As to the kind of experiment: c-KIT D816H Kinase Assay. The following applies: enzymatic assay, ATP 200 µM. How it is done: In this assay, the oxidation of NADH (measured by decrease in absorbance at 340 nm) was continuously monitored spectrophotometrically. […] The inhibition reaction was started by mixing serial diluted test compound with the above reaction mixture. The absorption at 340 nm was monitored continuously for 6 hours at 30 °C on Synergy 2 plate reader (BioTech). […] The protein construct was prepared by deCODE Biostructures using procedures known in the art. The construct contains […] of cKit, an N-terminal tag, a GST-fusion sequence and a TEV cleavage site. This construct is identical to Seq ID no.

SMILES strings stand for the structures.

T1 sequence (P10721 544-976 D816V): as the sequence (P10721 544-976 T670I) above, with I127T, D273V counted along it
T4 sequence (P10721 544-976 D816H): as the sequence (P10721 544-976 T670I) above, with I127T, D273H counted along it

For `CNc1cc2c(cn1)cc(-c1cc(NC(=O)Nc3cccc(C#N)c3)ccc1Cl)c(=O)n2C` [Example 11, 1-(4-chloro-3-(1-methyl-7-(methylamino)-2-oxo-1,2-dihydro-1,6-naphthyridin-3-yl)phenyl)-3-(3-cyanophenyl)urea], the IC50 on c-KIT D816V kinase was greater than 1000 nM.
Regarding `CCn1c(=O)c(-c2cc(NC(=O)Nc3ccccc3)c(F)cc2Cl)cc2cnc(NCCN(C)C)cc21` [Example 29, 1-(4-chloro-5-(7-(2-(dimethylamino)ethylamino)-1-ethyl-2-oxo-1,2-dihydro-1,6-naphthyridin-3-yl)-2-fluorophenyl)-3-phenylurea], the concentration for half-maximal inhibition (IC50) was in the range of 100 to 1000 nM at c-KIT D816V kinase, 100 to 1000 nM at c-KIT T670I kinase and 10 to 100 nM on c-KIT kinase.
As for `CCn1c(=O)c(-c2cc(NC(=O)Nc3ccccc3)c(F)cc2Cl)cc2cnc(N[C@@H](C)COC)cc21` [Example 43, (S)-1-(4-chloro-5-(1-ethyl-7-(1-methoxypropan-2-ylamino)-2-oxo-1,2-dihydro-1,6-naphthyridin-3-yl)-2-fluorophenyl)-3-phenylurea], the IC50 at c-KIT D816V kinase was 100 to 1000 nM; at c-KIT T670I kinase, 100 to 1000 nM; on c-KIT kinase, 10 to 100 nM.
With `CNc1cc2c(cn1)cc(-c1cc(NC(=O)Nc3ccccc3)c(F)cc1Br)c(=O)n2C` [Example 56, 1-(4-bromo-2-fluoro-5-(1-methyl-7-(methylamino)-2-oxo-1,2-dihydro-1,6-naphthyridin-3-yl)phenyl)-3-phenylurea], the IC50 is 10 to 100 nM at c-KIT D816V kinase, 100 to 1000 nM at c-KIT T670I kinase and less than 10 nM at c-KIT kinase.
Take `CCn1c(=O)c(-c2cc(NC(=O)Nc3cc(F)ccc3F)c(F)cc2F)cc2cnc(NC)cc21` [Example 62, 1-(2,5-difluorophenyl)-3-(5-(1-ethyl-7-(methylamino)-2-oxo-1,2-dihydro-1,6-naphthyridin-3-yl)-2,4-difluorophenyl)urea]: the IC50 on c-KIT D816V kinase was 100 to 1000 nM; at c-KIT T670I kinase, less than 10 nM; on c-KIT kinase, less than 10 nM.
`CCn1c(=O)c(-c2cc(NC(=O)Nc3ccccc3)c(F)cc2Br)cc2cnc(NC(=O)CC#N)cc21` [Example 64, N-(3-(2-bromo-4-fluoro-5-(3-phenylureido)phenyl)-1-ethyl-2-oxo-1,2-dihydro-1,6-naphthyridin-7-yl)-2-cyanoacetamide]: the half-maximal inhibitory concentration (IC50) at c-KIT D816V kinase is 100 to 1000 nM; at c-KIT T670I kinase it was 100 to 1000 nM; at c-KIT kinase, 10 to 100 nM.
`CCn1c(=O)c(-c2cc(NC(=O)Nc3ccccc3)c(F)cc2Cl)cc2cnc(NC(=O)CC#N)cc21` [Example 65, N-(3-(2-chloro-4-fluoro-5-(3-phenylureido)phenyl)-1-ethyl-2-oxo-1,2-dihydro-1,6-naphthyridin-7-yl)-2-cyanoacetamide]: the IC50 at c-KIT D816V kinase was 10 to 100 nM; at c-KIT T670I kinase, 10 to 100 nM; on c-KIT kinase, less than 10 nM.
Regarding `CCn1c(=O)c(-c2cc(NC(=O)Nc3cc(F)cc(Cl)c3)c(F)cc2C)cc2cnc(NC)cc21` [Example 69, 1-(3-chloro-5-fluorophenyl)-3-(5-(1-ethyl-7-(methylamino)-2-oxo-1,2-dihydro-1,6-naphthyridin-3-yl)-2-fluoro-4-methylphenyl)urea], the IC50 on c-KIT V654A kinase lay within 10 to 100 nM; at c-KIT D816V kinase it was 100 to 1000 nM; at c-KIT T670I kinase it was 10 to 100 nM; at c-KIT kinase, 10 to 100 nM.
With `CCn1c(=O)c(-c2cc(NC(=O)Nc3cc(F)cc(Cl)c3)c(F)cc2Cl)cc2cnc(NC)cc21` [Example 71, 1-(4-chloro-5-(1-ethyl-7-(methylamino)-2-oxo-1,2-dihydro-1,6-naphthyridin-3-yl)-2-fluorophenyl)-3-(3-chloro-5-fluorophenyl)urea], the IC50 was 10 to 100 nM on c-KIT V654A kinase, 100 to 1000 nM at c-KIT D816V kinase, 10 to 100 nM on c-KIT T670I kinase and 10 to 100 nM at c-KIT kinase.
As for `CCn1c(=O)c(-c2cc(NC(=O)Nc3cc(C)cc(F)c3)c(F)cc2Cl)cc2cnc(NC)cc21` [Example 72, 1-(4-chloro-5-(1-ethyl-7-(methylamino)-2-oxo-1,2-dihydro-1,6-naphthyridin-3-yl)-2-fluorophenyl)-3-(3-fluoro-5-methylphenyl)urea], the IC50 at c-KIT V654A kinase is 100 to 1000 nM; on c-KIT D816V kinase, 10 to 100 nM; on c-KIT T670I kinase, less than 10 nM; at c-KIT kinase it was less than 10 nM.
In the case of `CCn1c(=O)c(-c2cc(NC(=O)Nc3ccccc3)c(F)cc2Cl)cc2cnc(NC(=O)COC)cc21` [Example 74, N-(3-(2-chloro-4-fluoro-5-(3-phenylureido)phenyl)-1-ethyl-2-oxo-1,2-dihydro-1,6-naphthyridin-7-yl)-2-methoxyacetamide], the IC50 on c-KIT D816V kinase is less than 10 nM; on c-KIT T670I kinase it was 10 to 100 nM; on c-KIT kinase, less than 10 nM.
In the case of `CCn1c(=O)c(-c2cc(NC(=O)Nc3cccc(F)c3)c(F)cc2C)cc2cnc(NC(C)=O)cc21` [Example 78, N-(1-ethyl-3-(4-fluoro-5-(3-(3-fluorophenyl)ureido)-2-methylphenyl)-2-oxo-1,2-dihydro-1,6-naphthyridin-7-yl)acetamide], the figures for the IC50 at c-KIT D816V kinase, at c-KIT T670I kinase and at c-KIT kinase were 10 to 100 nM, 10 to 100 nM and less than 10 nM, respectively.
Take `CCn1c(=O)c(-c2cc(NC(=O)Nc3ccccc3)c(F)cc2C)cc2cnc(NC(C)=O)cc21` [Example 80, N-(1-ethyl-3-(4-fluoro-2-methyl-5-(3-phenylureido)phenyl)-2-oxo-1,2-dihydro-1,6-naphthyridin-7-yl)acetamide]: the IC50 on c-KIT D816H kinase is less than 10 nM; at c-KIT D816V kinase, 10 to 100 nM; on c-KIT T670I kinase it was 10 to 100 nM; at c-KIT kinase, less than 10 nM.
Consider `CCn1c(=O)c(-c2cc(NC(=O)Nc3cccc(CN4CCN(C)CC4)c3)c(F)cc2C)cc2cnc(NC)cc21` [Example 82, 1-(5-(1-ethyl-7-(methylamino)-2-oxo-1,2-dihydro-1,6-naphthyridin-3-yl)-2-fluoro-4-methylphenyl)-3-(3-((4-methylpiperazin-1-yl)methyl)phenyl)urea], for which the half-inhibitory concentration (IC50) on c-KIT D816V kinase fell in the range of 100 to 1000 nM; at c-KIT T670I kinase, 100 to 1000 nM; on c-KIT kinase, 10 to 100 nM.
For `CCn1c(=O)c(-c2cc(NC(=O)Nc3cccc(CN4CCN(C)CC4)c3)c(F)cc2Br)cc2cnc(NC)cc21` [Example 83, 1-(4-bromo-5-(1-ethyl-7-(methylamino)-2-oxo-1,2-dihydro-1,6-naphthyridin-3-yl)-2-fluorophenyl)-3-(3-((4-methylpiperazin-1-yl)methyl)phenyl)urea], the results for the half-inhibitory concentration (IC50) at c-KIT D816V kinase, at c-KIT T670I kinase and at c-KIT kinase were 100 to 1000 nM, 100 to 1000 nM and less than 10 nM, respectively.
As to `CCn1c(=O)c(-c2cc(NC(=O)Nc3ccc(F)c(CN4CCN(C)CC4)c3)c(F)cc2F)cc2cnc(NC)cc21` [Example 90, 1-(5-(1-ethyl-7-(methylamino)-2-oxo-1,2-dihydro-1,6-naphthyridin-3-yl)-2,4-difluorophenyl)-3-(4-fluoro-3-((4-methylpiperazin-1-yl)methyl)phenyl)urea], the IC50 at c-KIT D816H kinase is 10 to 100 nM; on c-KIT D816V kinase it was greater than 1000 nM; on c-KIT T670I kinase, 10 to 100 nM; at c-KIT kinase it was less than 10 nM.
Turning to `CCn1c(=O)c(-c2cc(NC(=O)Nc3ccccc3)c(F)cc2I)cc2cnc(NC)cc21` [Example 114, 1-(5-(1-ethyl-7-(methylamino)-2-oxo-1,2-dihydro-1,6-naphthyridin-3-yl)-2-fluoro-4-iodophenyl)-3-phenylurea], the IC50 is 100 to 1000 nM on c-KIT D816V kinase, greater than 1000 nM on c-KIT T670I kinase and 10 to 100 nM at c-KIT kinase.
